We go through 4 molecules from US20220347267A1, “METHODS TO IMPROVE PATIENT RESPONSE TO IMMUNE CHECKPOINT INHIBITORS AND FUNCTIONAL TESTS TO PREDICT RESPONSE” (Biomarker Strategies, LLC, priority 2019, published 2022).

Holding throughout (assay type): cell-based, human
Assay [1] relates to various NSCLC, HNSCC, breast cancer, melanoma, colorectal cancer, and pancreatic cancer cell lines. The assay can be described thus: PD-L1 western blot after modulators, summary over all samples. The note with it: depending on the sample, summary of Table 3. The source says: (§1) Cell lines were acquired from ATCC, Sigma, or DSMZ. Human non-small cell lung carcinoma (NSCLC) cell lines H292 (ATCC no. CRL-1848.), H1299 (ATCC no. CRL-5803), H520 (ATCC no. CRL-5811), CALU6 (ATCC no. HTB-56), H1975 (ATCC no. CRL-5908), H460 (ATCC no. HTB-177), H2126 (ATCC no. CCL-256), H1650 (ATCC no. CRL-5883), and H2087 (ATCC no. CRL-5922) were used for this experiment along with head and neck squamous cell carcinoma (HNSCC) cell lines BHY (DSMZ ACC 404), CAL27 (ATCC no. CRL-2095), KYSE410 (Sigma), and A253 (ATCC no. HTB-41), melanoma cell lines A375 (ATCC no. CRL-1619), COL0853 (Sigma), and MM127 (Sigma) pancreatic cancer cell lines BXPC3 (ATCC no. CRL-1687), colorectal cancer cell lines […], HCT116 (ATCC no. CCL-247EMT), and breast cancer cell lines BT549 (ATCC no. HTB-122), BT20 (ATCC no. HTB-19), and T47D (ATCC no. HTB-133). Cells were maintained in manufacturer-recommended conditions at 37° C. inside humidified 5% CO2 incubators. Sub-cultivation and harvesting for all cell lines were performed using Accutase (GIBCO Life Technologies; cat. no. A1110501) at 37° C. for 10 minutes. Cell viability was measured using trypan blue exclusion staining in conjunction with the Countess II Automated Cell Counter (Thermo Fischer Scientific; cat. no. AMQAX1000). Measurements were made in duplicate and the average number of viable cells was recorded prior to experiments.
(§2) T7039), and IL-10 (50 ng/ml; Sigma Aldrich cat. no. SRP3071) were administered to cell lines for various times including 30 minutes, 3 hour, and 24 hour time intervals prior to cell lysis and protein extraction.
(§3) To determine the effects of the aforementioned molecules on the modulation of PD-L1, we selected various NSCLC, HNSCC, breast cancer, melanoma, colorectal cancer, and pancreatic cancer cell lines as examples. Other diseases or cell lines could be used readily as could more complex samples such as cells isolated from xenografts and clinical samples. Cells were plated, for three different time points (30 minutes, 3 hours, and 24 hours), inside 6-well petri dishes with 2 mL of appropriate medium. Plates were incubated for 24 hours in 5% CO2 incubators at 37° C. After 24 hours, each 6-well plate was washed with PBS (Gibco Life Technologies, cat. no. 10010023) followed by fresh media being added along with each cell line's vehicle control or appropriate modulator for each specific time point, and were placed in CO2 incubators until their modulation time point was reached. Other conditions can be readily used, such as processing on automated systems such as SnapPath. At the end of each time point, while keeping plates on ice, cell lysis was conducted by aspirating culture medium from each plate, washing of each plate three times with 5 ml of cold PBS (Gibco Life Technologies, cat. no. 10010023) and culminated with the addition of cold 1× lysis buffer containing (Cell Signaling, cat. no. 9803 S) protease inhibitor cocktail (Cell Signaling, cat. no. 5871S), phosphatase inhibitor cocktail (Cell Signaling, cat. no. 5870S), and PMSF (Fisher Scientific, cat. no. ICN19538101). Plates were then placed on ice for ten minutes, swirling each plate intermittently. Aliquots of protein lysates were prepared and then stored at −80° C. until protein quantification and Western blot analysis was to be conducted. The protein concentration of each lysate was analyzed by using the Pierce 660 Protein Assay Reagent (Thermo Fisher Scientific, cat. no. 22660) and testing of each sample was conducted in duplicate. Two μg of protein was then loaded per lane into 10% Midi-PROTEAN TGX Precast Gels (Bio Rad, cat. no. 5671034) along with Kaleidoscope Prestained Protein Standard (BioRad, cat. no. 1610375) which ran at 220V for 45 minutes. Proteins were transferred to mini-PVDF membranes (BioRad, cat. no. 1704156) in 3 minutes using the Trans-Blot Turbo Transfer System (BioRad, cat. no. 1704150EDU).

The next assay has as its system H292 cells. The assay can be described thus: PD-L1 western blot after modulators (EM and MTAs). The note with it: NSCLC H292, 30 minutes, 3 hours, 24 hours.
From the text: as §1, §2, §3

The next assay concerns BxPC3 cells. The assay can be described thus: PD-L1 western blot after modulators (EM and MTAs). The note with it: Pancreatic BxPC3, 30 minutes, 3 hours, 24 hours.
From the text: as §1
(§4) Enhancer Molecule and Therapies: IFNγ, (10 ng/ml; Sigma Aldrich, cat.no 11040596001), TNFα (10 ng/ml; BD Biosciences cat. no. 554618), Osimertinib (100 ng/ml; Selleckchem cat.no. S7297), Everolimus (100 ng/ml; Selleckchem cat.no S1120), GSK458 (10 ng/ml; Selleckchem cat. no. S2658), TNFb (50 ng/ml; Sigma Aldrich cat. no.), GSK795 (1,000 ng/ml; Selleckchem cat. no. S7492), IL-12 (50 ng/ml; Sigma Aldrich SRP3073), GM-CSF (50 ng/ml; Sigma Aldrich cat. no. G5035), IL-1a (1 ng/ml; Sigma Aldrich cat. no. 12778-), IL-6 (50 ng/ml; Sigma Aldrich), IL-17 (100 ng/ml; Sigma Aldrich cat. no. SRP3080), TGFb (1 ng/ml; Sigma Aldrich cat. no. T7039), and IL-10 (50 ng/ml; Sigma Aldrich cat. no. SRP3071) were administered to cell lines for various times including 30 minutes, 3 hour, and 24 hour time intervals prior to cell lysis and protein extraction.
as §3, with “The protein concentration of each lysate was analyzed by using the Pierce 660 Protein Assay Reagent (Thermo Fisher Scientific, cat. no. 22660) and testing of each sample was conducted in duplicate. Two μg of protein was then loaded per lane into 10% Midi-PROTEAN TGX Precast Gels (Bio Rad, cat. no. 5671034) along with Kaleidoscope Prestained Protein Standard (BioRad, cat. no. 1610375) which ran at 220V for 45 minutes. Proteins were transferred to mini-PVDF membranes (BioRad, cat. no. 1704156) in 3 minutes using the Trans-Blot Turbo Transfer System (BioRad, cat. no. 1704150EDU).” left out

The subject of a further assay is BT20 cells. Description: PD-L1 western blot after modulators (EM and MTAs). The note with it: Breast BT20, 30 minutes, 3 hours, 24 hours.
From the text: as §1, §4
as §3, with “The protein concentration of each lysate was analyzed by using the Pierce 660 Protein Assay Reagent (Thermo Fisher Scientific, cat. no. 22660) and testing of each sample was conducted in duplicate. Two μg of protein was then loaded per lane into 10% Midi-PROTEAN TGX Precast Gels (Bio Rad, cat. no. 5671034) along with Kaleidoscope Prestained Protein Standard (BioRad, cat. no. 1610375) which ran at 220V for 45 minutes. Proteins were transferred to mini-PVDF membranes (BioRad, cat. no. 1704156) in 3 minutes using the Trans-Blot Turbo Transfer System (BioRad, cat. no. 1704150EDU).” left out

The next assay has as its system BT549 cells. The assay can be described thus: PD-L1 western blot after modulators (EM and MTAs). The note with it: Breast BT549, 30 minutes, 3 hours, 24 hours.
From the text: as §1, §2, §3

In another assay the test system is H1975 cells. The assay can be described thus: PD-L1 western blot after modulators (EM and MTAs). To be noted: NSCLC H1975, 30 minutes, 3 hours, 24 hours.
From the text: as §1, §4
as §3, with “The protein concentration of each lysate was analyzed by using the Pierce 660 Protein Assay Reagent (Thermo Fisher Scientific, cat. no. 22660) and testing of each sample was conducted in duplicate. Two μg of protein was then loaded per lane into 10% Midi-PROTEAN TGX Precast Gels (Bio Rad, cat. no. 5671034) along with Kaleidoscope Prestained Protein Standard (BioRad, cat. no. 1610375) which ran at 220V for 45 minutes. Proteins were transferred to mini-PVDF membranes (BioRad, cat. no. 1704156) in 3 minutes using the Trans-Blot Turbo Transfer System (BioRad, cat. no. 1704150EDU).” left out

The test system of the next assay is CAL27 cells. Description: PD-L1 western blot after modulators (EM and MTAs). To be noted: Head and neck CAL27, 30 minutes, 3 hours, 24 hours.
From the text: as §1, §4
as §3, with “The protein concentration of each lysate was analyzed by using the Pierce 660 Protein Assay Reagent (Thermo Fisher Scientific, cat. no. 22660) and testing of each sample was conducted in duplicate. Two μg of protein was then loaded per lane into 10% Midi-PROTEAN TGX Precast Gels (Bio Rad, cat. no. 5671034) along with Kaleidoscope Prestained Protein Standard (BioRad, cat. no. 1610375) which ran at 220V for 45 minutes. Proteins were transferred to mini-PVDF membranes (BioRad, cat. no. 1704156) in 3 minutes using the Trans-Blot Turbo Transfer System (BioRad, cat. no. 1704150EDU).” left out

In another assay the test system is BHY cells. The assay can be described thus: PD-L1 western blot after modulators (EM and MTAs). To be noted: Head and neck BHY, 30 minutes, 3 hours, 24 hours.
From the text: as §1, §4
as §3, with “The protein concentration of each lysate was analyzed by using the Pierce 660 Protein Assay Reagent (Thermo Fisher Scientific, cat. no. 22660) and testing of each sample was conducted in duplicate. Two μg of protein was then loaded per lane into 10% Midi-PROTEAN TGX Precast Gels (Bio Rad, cat. no. 5671034) along with Kaleidoscope Prestained Protein Standard (BioRad, cat. no. 1610375) which ran at 220V for 45 minutes. Proteins were transferred to mini-PVDF membranes (BioRad, cat. no. 1704156) in 3 minutes using the Trans-Blot Turbo Transfer System (BioRad, cat. no. 1704150EDU).” left out

In a further assay the test system is KYSE410 cells. The assay can be described thus: PD-L1 western blot after modulators (EM and MTAs). The note with it: Head and neck KYSE410, 30 minutes, 3 hours, 24 hours.
From the text: as §1, §4
as §3, with “The protein concentration of each lysate was analyzed by using the Pierce 660 Protein Assay Reagent (Thermo Fisher Scientific, cat. no. 22660) and testing of each sample was conducted in duplicate. Two μg of protein was then loaded per lane into 10% Midi-PROTEAN TGX Precast Gels (Bio Rad, cat. no. 5671034) along with Kaleidoscope Prestained Protein Standard (BioRad, cat. no. 1610375) which ran at 220V for 45 minutes. Proteins were transferred to mini-PVDF membranes (BioRad, cat. no. 1704156) in 3 minutes using the Trans-Blot Turbo Transfer System (BioRad, cat. no. 1704150EDU).” left out

Take `COc1ncc(-c2ccc3nccc(-c4ccnnc4)c3c2)cc1NS(=O)(=O)c1ccc(F)cc1F` [GSK458, reference compound]: the “regulation of PD-L1 across samples” value in [1] is “both up and down regulation”. The “PD-L1 Response” value is reported as “Down” in the assay on H292 cells, “Up” in the assay on BxPC3 cells and “Up” in the assay on BT20 cells.

`Cn1ncc(Cl)c1-c1cc(C(=O)N[C@H](CN)Cc2ccc(F)c(F)c2)oc1Cl` [GSK795, reference compound]: the “PD-L1 Response” value in the assay with BT549 cells is “Up”; in the assay on H1975 cells, “Down”; with CAL27 cells it was “Up”; in the assay on BHY cells, “Up”.

Regarding `C=CC(=O)Nc1cc(Nc2nccc(-c3cn(C)c4ccccc34)n2)c(OC)cc1N(C)CCN(C)C` [Osimertinib, reference compound], the “regulation of PD-L1 across samples” value in assay [1] was “both up and down regulation”. In addition, the “PD-L1 Response” value with H292 cells is “Down”; in the assay on KYSE410 cells it was “Up”; in the assay with BHY cells, “Up”.

For the molecule `CO[C@H]1C[C@@H]2CC[C@@H](C)[C@@](O)(O2)C(=O)C(=O)N2CCCC[C@H]2C(=O)O[C@H]([C@H](C)C[C@@H]2CC[C@@H](OCCO)[C@H](OC)C2)CC(=O)[C@H](C)/C=C(\C)[C@@H](O)[C@@H](OC)C(=O)[C@H](C)C[C@H](C)/C=C/C=C/C=C/1C` [everolimus, Everolimus], in assay [1], the “regulation of PD-L1 across samples” value is “both up and down regulation”. The “PD-L1 Response” value in the assay on H292 cells is “Down”; in the assay on BxPC3 cells, “Up”.
